Data taken from patent US6589915B1, “Benzohetero cyclylcyclo hexenones and their use as herbicides” (BASF Aktiengesellschaft, priority 1999, dated 2003).

What was measured:
Type in all cases: in vivo
POLPE (ladysthumb) = assay: greenhouse post-emergence herbicidal test
Description: (§1) The seeds of the test plants were sown separately for each species. For the post-emergence treatment, the test plants were first, grown to a plant height of from 3 to 15 cm, depending on the plant habit, and only then treated with the active ingredients which had been suspended or emulsified in water. To this end, the test plants were either sown directly and grown in the same containers, or they were first grown separately as seedlings and transplanted into the test containers a few days prior to treatment. […] Depending on the species, the plants were kept at from 10 to 25° C., or 20 to 35° C., respectively. The test period extended over 2 to 4 weeks. During this time, the plants were tended, and their response to the individual treatments was evaluated. Evaluation was carried out using a scale of from 0 to 100. 100 means no emergence of the plants, or complete destruction of at least the aerial parts, and 0 means no damage, or normal course of growth. [table] The following experiments were performed by the post-emergence method.

SETFA (giant foxtail) = assay: greenhouse post-emergence herbicidal test
Description: as §1

[1] = test system: CHEAL (lambsquarters (goosefoot)); assay: greenhouse post-emergence herbicidal test
Description: as §1

ECHCG (barnyard grass) = assay: greenhouse post-emergence herbicidal test
Description: as §1

PHPBU = assay: greenhouse post-emergence herbicidal test; details: 0.125 and 0.25 kg/ha (a.s.)
Description: (§2) The seeds of the test plants were sown separately for each species. For the post-emergence treatment, the test plants were first, grown to a plant height of from 3 to 15 cm, depending on the plant habit, and only then treated with the active ingredients which had been suspended or emulsified in water. To this end, the test plants were either sown directly and grown in the same containers, or they were first grown separately as seedlings and transplanted into the test containers a few days prior to treatment. The rat e of application for the post-emergence treatment was 0.25 or 0.125 kg of a.s. (active substance)/ha. Depending on the species, the plants were kept at from 10 to 25° C., or 20 to 35° C., respectively. The test period extended over 2 to 4 weeks. During this time, the plants were tended, and their response to the individual treatments was evaluated. Evaluation was carried out using a scale of from 0 to 100. 100 means no emergence of the plants, or complete destruction of at least the aerial parts, and 0 means no damage, or normal course of growth. [table] The following experiments were performed by the post-emergence method.

AMARE (redroot pigweed) = assay: greenhouse post-emergence herbicidal test
Description: as §1

ABUTH (velvet leaf) = assay: greenhouse post-emergence herbicidal test
Description: as §1

wheat = assay: greenhouse post-emergence test, crop selectivity; details: 0.25 and 0.5 kg/ha (a.s.)
Description: as §1

IPOSS = assay: greenhouse post-emergence herbicidal test
Description: as §1, with “growth.” for “growth. [table]”

[2] = test system: GALAP (catchweed bedstraw); assay: greenhouse post-emergence herbicidal test; details: 0.125 and 0.25 kg/ha (a.s.)
Description: as §2

## Cc1c(C(=O)C2=C(O)C3CCC(C3)C2=O)ccc2sc(Oc3ccccc3F)nc12 (centres unmarked) [Example I-1x.790]
POLPE (ladysthumb); 0.125 and 0.25 kg/ha (a.s.)
  herbicidal action against POLPE: very good
SETFA (giant foxtail); 0.125 and 0.25 kg/ha (a.s.)
  herbicidal action against SETFA: very good
[1]; 0.125 and 0.25 kg/ha (a.s.)
  herbicidal action against CHEAL: very good
ECHCG (barnyard grass); 0.125 and 0.25 kg/ha (a.s.)
  herbicidal action against ECHCG: very good

## COCc1nc2c(C)c(C(=O)C3=C(O)C4CCC(C4)C3=O)ccc2s1 (centres unmarked) [Example I-1x.420]
POLPE (ladysthumb); 0.125 and 0.25 kg/ha (a.s.)
  herbicidal action against POLPE: very good
SETFA (giant foxtail); 0.125 and 0.25 kg/ha (a.s.)
  herbicidal action against SETFA: very good
[1]; 0.125 and 0.25 kg/ha (a.s.)
  herbicidal action against CHEAL: very good
ECHCG (barnyard grass); 0.125 and 0.25 kg/ha (a.s.)
  herbicidal action against ECHCG: very good
PHPBU
  herbicidal action against PHPBU: very good

## CSc1nc2c(C)c(C(=O)C3=C(O)C4CCC(C4)C3=O)ccc2s1 (centres unmarked) [Example I-1x.435]
AMARE (redroot pigweed); 0.0625 and 0.125 kg/ha (a.s.)
  herbicidal action against AMARE: very good
[1]; 0.0625 and 0.125 kg/ha (a.s.)
  herbicidal action against CHEAL: very good
ECHCG (barnyard grass); 0.0625 and 0.125 kg/ha (a.s.)
  herbicidal action against ECHCG: very good

## Cc1c(C(=O)C2=C(O)CCCC2=O)ccc2sc(C(C)C)nc12 [Example I-1a.408]
POLPE (ladysthumb); 0.125 and 0.25 kg/ha (a.s.)
  herbicidal action against POLPE: good to very good
[1]; 0.125 and 0.25 kg/ha (a.s.)
  herbicidal action against CHEAL: good to very good
ABUTH (velvet leaf); 0.125 and 0.25 kg/ha (a.s.)
  herbicidal action against ABUTH: good to very good
ECHCG (barnyard grass); 0.125 and 0.25 kg/ha (a.s.)
  herbicidal action against ECHCG: good to very good

## CCc1nc2c(C)c(C(=O)C3=C(O)C4CCC(C4)C3=O)ccc2s1 (centres unmarked) [Example I-1x.406]
POLPE (ladysthumb); 0.125 and 0.25 kg/ha (a.s.)
  herbicidal action against POLPE: very good
[1]; 0.125 and 0.25 kg/ha (a.s.)
  herbicidal action against CHEAL: very good
ABUTH (velvet leaf); 0.125 and 0.25 kg/ha (a.s.)
  herbicidal action against ABUTH: very good
ECHCG (barnyard grass); 0.125 and 0.25 kg/ha (a.s.)
  herbicidal action against ECHCG: very good

## Cc1c(C(=O)C2=C(O)CC(C)(C)CC2=O)ccc2sc(Cl)nc12 [Example I-1c.396]
SETFA (giant foxtail); 0.25 and 0.5 kg/ha (a.s.)
  herbicidal action against SETFA: good to very good
AMARE (redroot pigweed); 0.25 and 0.5 kg/ha (a.s.)
  herbicidal action against AMARE: good to very good
[1]; 0.25 and 0.5 kg/ha (a.s.)
  herbicidal action against CHEAL: good to very good
ECHCG (barnyard grass); 0.25 and 0.5 kg/ha (a.s.)
  herbicidal action against ECHCG: good to very good

## Cc1c(C(=O)C2=C(O)CCCC2=O)ccc2scnc12 [Example I-1a.394]
POLPE (ladysthumb); 0.25 and 0.5 kg/ha (a.s.)
  herbicidal action against POLPE: very good
AMARE (redroot pigweed); 0.25 and 0.5 kg/ha (a.s.)
  herbicidal action against AMARE: very good
[1]; 0.25 and 0.5 kg/ha (a.s.)
  herbicidal action against CHEAL: very good
wheat
  selectivity in wheat: selectivity
IPOSS; 0.25 and 0.5 kg/ha (a.s.)
  herbicidal action against IPOSS: very good

## CCc1nc2c(C)c(C(=O)C3=C(O)CCCC3=O)ccc2o1 [Example I-2a.406]
AMARE (redroot pigweed); 0.125 and 0.25 kg/ha (a.s.)
  herbicidal action against AMARE: very good
[1]; 0.125 and 0.25 kg/ha (a.s.)
  herbicidal action against CHEAL: very good
ABUTH (velvet leaf); 0.125 and 0.25 kg/ha (a.s.)
  herbicidal action against ABUTH: very good
[2]
  herbicidal action against GALAP: good
IPOSS; 0.125 and 0.25 kg/ha (a.s.)
  herbicidal action against IPOSS: very good

## CCc1nc2c(C)c(C(=O)C3=C(O)C4CCC(C4)C3=O)ccc2o1 (centres unmarked) [Example I-2x.406]
POLPE (ladysthumb); 0.0625 and 0.125 kg/ha (a.s.)
  herbicidal action against POLPE: good to very good
[1]; 0.0625 and 0.125 kg/ha (a.s.)
  herbicidal action against CHEAL: good to very good
ABUTH (velvet leaf); 0.0625 and 0.125 kg/ha (a.s.)
  herbicidal action against ABUTH: good to very good
ECHCG (barnyard grass); 0.0625 and 0.125 kg/ha (a.s.)
  herbicidal action against ECHCG: good to very good
